Test results from patent publication US20020052295A1, “Diacyl derivatives of propylene diamine having herbicidal activity” (priority 1999, published 2002).

Columns and labels:
PANMI [1] = assay: Post-emergence herbicidal activity on PANMI (wild proso millet); format: in vivo, Panicum miliaceum; conditions: post-emergence spray; lowest tested rate with 80% or greater inhibition; about 14 days after treatment
SETFA [2] = assay: Post-emergence herbicidal activity on SETFA (giant foxtail); format: in vivo, Setaria faberi; conditions: post-emergence spray; lowest tested rate with 80% or greater inhibition; about 14 days after treatment
From the text: (§1) All such uses, and the biological activity enabling such uses, are embraced by the term “herbicidal” herein. Tables 15 and 16 summarize results of tests conducted as described below to determine the pre-emergence herbicidal activity, in the form of a GR80 value, of illustrative compounds of this invention. […] Where herbicidal activity was evident but 80% inhibition was not achieved at the highest rate tested (typically 1000 g/ha), an asterisk (*) is shown in the following tables. Herbicidal activity evident in the form of symptoms of phytotoxicity, in the absence of at least 80% inhibition at any rate, is indicated in the tables by “phyto”. A blank cell in the following tables indicates no herbicidal or phytotoxic response at any rate tested.
(§2) In another set of tests, the post-emergence activity of compounds of this invention was evaluated on the cool season species listed above. The following procedure was used.
(§3) A pre-prepared topsoil mixture (described above) was placed in a pot and compacted to a depth of 1.0 to 1.25 cm from the top of the pot. Seeds of each of several monocotyledonous and dicotyledonous annual plant species were placed on top of the soil The seeds were covered with a mixture of 50% topsoil and 50% Rediearth™ in sufficient quantity to level-fill the pots. The pots were then placed on a greenhouse bench and subirrigated as needed until plants growing from the seeds had emerged and reached a suitable growth stage for post-emergence treatment, typically 9 to 14 days after planting.
(§4) A known amount of each test compound dissolved or suspended in an appropriate organic solvent was diluted with a 50:50 mix of acetone and water and applied to the plants by spraying with a standard spray nozzle in a spray volume of 3,100 l/ha at a spray pressure of […] (30 psig). Control plants were not sprayed.
(§5) After treatment the plants were placed in a greenhouse with a 30/21° C. day/night temperature regime and were subsequently watered as needed for growth. Approximately 14 days after treatment, the plants were observed and herbicidal efficacy recorded as percent inhibition by comparison with control plants.

ECHCG [3] = assay: Post-emergence herbicidal activity on ECHCG (barnyardgrass); format: in vivo, Echinochloa crus-galli; conditions: post-emergence spray; lowest tested rate with 80% or greater inhibition; about 14 days after treatment
From the text: as §1, §2, §3, §4, §5

PANDI [4] = assay: Post-emergence herbicidal activity on PANDI (fall panicum); format: in vivo, Panicum dichotomiflorum; conditions: post-emergence spray; lowest tested rate with 80% or greater inhibition; about 14 days after treatment
From the text: as §1, §2, §3, §4, §5

SORHA [5] = assay: Post-emergence herbicidal activity on SORHA (johnsongrass, seedling); format: in vivo, Sorghum halepense; conditions: post-emergence spray; lowest tested rate with 80% or greater inhibition; about 14 days after treatment
From the text: as §1, §2, §3, §4, §5

SORVU [6] = assay: Post-emergence herbicidal activity on SORVU (shattercane); format: in vivo, Sorghum vulgare; conditions: post-emergence spray; lowest tested rate with 80% or greater inhibition; about 14 days after treatment
From the text: as §1, §2, §3, §4, §5

BRAPP [7] = assay: Post-emergence herbicidal activity on BRAPP (broadleaf signalgrass); format: in vivo, Brachiaria platyphylla; conditions: post-emergence spray; lowest tested rate with 80% or greater inhibition; about 14 days after treatment
From the text: as §1, §2, §3, §4, §5

DIGSA [8] = assay: Post-emergence herbicidal activity on DIGSA (large crabgrass); format: in vivo, Digitaria sanguinalis; conditions: post-emergence spray; lowest tested rate with 80% or greater inhibition; about 14 days after treatment
BRAPP [9] = assay: Pre-emergence herbicidal activity on BRAPP (broadleaf signalgrass); format: in vivo, Brachiaria platyphylla; conditions: lowest tested rate giving 80% or greater inhibition, approx. 14 days after planting and treating, greenhouse
Summary of the method: (§6)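 Values are GR80 (rate giving 80% inhibition), with rates up to typically 1000 g/ha. Inhibition is visually recorded against untreated pots roughly two weeks after sowing and surface treatment in a 30/21 °C day/night greenhouse.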

CHEAL = assay: Pre-emergence herbicidal activity on CHEAL (common lambsquarters); format: in vivo, Chenopodium album; conditions: lowest tested rate giving 80% or greater inhibition, approx. 14 days after planting and treating, greenhouse
Summary of the method: as §6

SOLNI = assay: Pre-emergence herbicidal activity on SOLNI (black nightshade); format: in vivo, Solanum nigrum; conditions: lowest tested rate giving 80% or greater inhibition, approx. 14 days after planting and treating, greenhouse
Summary of the method: as §6

CIRAR = assay: Pre-emergence herbicidal activity on CIRAR (canada thistle, seedling); format: in vivo, Cirsium arvense; conditions: lowest tested rate giving 80% or greater inhibition, approx. 14 days after planting and treating, greenhouse
Summary of the method: as §6

CONAR = assay: Pre-emergence herbicidal activity on CONAR (field bindweed); format: in vivo, Convolvulus arvensis; conditions: lowest tested rate giving 80% or greater inhibition, approx. 14 days after planting and treating, greenhouse
Summary of the method: as §6

ECHCG [10] = assay: Pre-emergence herbicidal activity on ECHCG (barnyardgrass); format: in vivo, Echinochloa crus-galli; conditions: lowest tested rate giving 80% or greater inhibition, approx. 14 days after planting and treating, greenhouse
Summary of the method: as §6

ABUTH = assay: Pre-emergence herbicidal activity on ABUTH (velvetleaf); format: in vivo, Abutilon theophrasti; conditions: lowest tested rate giving 80% or greater inhibition, approx. 14 days after planting and treating, greenhouse
Summary of the method: as §6

DATST = assay: Pre-emergence herbicidal activity on DATST (jimsonweed); format: in vivo, Datura stramonium; conditions: lowest tested rate giving 80% or greater inhibition, approx. 14 days after planting and treating, greenhouse
Summary of the method: as §6

AMARE = assay: Pre-emergence herbicidal activity on AMARE (redroot pigweed); format: in vivo, Amaranthus retroflexus; conditions: lowest tested rate giving 80% or greater inhibition, approx. 14 days after planting and treating, greenhouse
Summary of the method: as §6

POROL = assay: Pre-emergence herbicidal activity on POROL (common purslane); format: in vivo, Portulaca oleracea; conditions: lowest tested rate giving 80% or greater inhibition, approx. 14 days after planting and treating, greenhouse
Summary of the method: as §6

PANDI [11] = assay: Pre-emergence herbicidal activity on PANDI (fall panicum); format: in vivo, Panicum dichotomiflorum; conditions: lowest tested rate giving 80% or greater inhibition, approx. 14 days after planting and treating, greenhouse
Summary of the method: as §6

SORVU [12] = assay: Pre-emergence herbicidal activity on SORVU (shattercane); format: in vivo, Sorghum vulgare; conditions: lowest tested rate giving 80% or greater inhibition, approx. 14 days after planting and treating, greenhouse
From the text: as §1
The pre-emergence tests were conducted by the following procedure. Topsoil was sieved to pass through a 1.27 cm screen. Fertilizer was added to the topsoil and the mixture was then sterilized by heating. The topsoil mixture was placed in a pot and compacted to a depth of 1.0 to 1.25 cm from the top of the pot. Seeds of each of several monocotyledonous and dicotyledonous annual plant species were placed on top of the soil. Additional soil was subsequently placed over the seeds to level-fill the pot. A known amount of each test compound dissolved or suspended in an appropriate organic solvent was diluted with a 50:50 mix of acetone and water and applied to the surface of the soil. After treatment the plants were placed in a greenhouse with a 30/21° C. day/night temperature regime where they received 0.64 cm of overhead irrigation. All subsequent watering consisted of a light overhead mist and/or subirrigation as needed for germination and growth.
Approximately 14 days after planting and treating, the plants were observed and herbicidal efficacy recorded as percent inhibition by comparison with untreated plants.
The plant species usually regarded as weeds which were utilized in the tests are identified in the tables below according to the following legend, in which “d” indicates a dicotyledonous species and “m” a monocotyledonous species. All monocotyledonous species included in the tests herein are grasses.

PANMI [13] = assay: Pre-emergence herbicidal activity on PANMI (wild proso millet); format: in vivo, Panicum miliaceum; conditions: lowest tested rate giving 80% or greater inhibition, approx. 14 days after planting and treating, greenhouse
Summary of the method: as §6

DIGSA [14] = assay: Pre-emergence herbicidal activity on DIGSA (large crabgrass); format: in vivo, Digitaria sanguinalis; conditions: lowest tested rate giving 80% or greater inhibition, approx. 14 days after planting and treating, greenhouse
Summary of the method: as §6

SORHA [15] = assay: Pre-emergence herbicidal activity on SORHA (johnsongrass, seedling); format: in vivo, Sorghum halepense; conditions: lowest tested rate giving 80% or greater inhibition, approx. 14 days after planting and treating, greenhouse
Summary of the method: as §6

SETFA [16] = assay: Pre-emergence herbicidal activity on SETFA (giant foxtail); format: in vivo, Setaria faberi; conditions: lowest tested rate giving 80% or greater inhibition, approx. 14 days after planting and treating, greenhouse
Summary of the method: as §6

`CC(CNC(=O)c1cccc(C(F)(F)F)c1)NC(=O)c1ccc(C(F)(F)F)c(F)c1` (stereo not shown) [Example 24] was tested, and the “Post-emergence activity (GR80) PANMI” value (PANMI [1]) was “phyto”, the “Post-emergence activity (GR80) SETFA” value (SETFA [2]) was “[empty]” and the “Post-emergence activity (GR80) ECHCG” value (ECHCG [3]) was “phyto”. The “Post-emergence activity (GR80) PANDI” value (PANDI [4]) was “phyto”, the “Post-emergence activity (GR80) SORHA” value (SORHA [5]) was “[empty]” and the “Post-emergence activity (GR80) SORVU” value (SORVU [6]) was “phyto”. For the same compound, the “Post-emergence activity (GR80) BRAPP” value (BRAPP [7]) was “phyto” and the “Post-emergence activity (GR80) DIGSA” value (DIGSA [8]) was “phyto”.
With `CC(CNC(=O)c1cccc(C(F)(F)F)c1)NC(=O)c1ccccc1Cl` (stereo not shown) [Example 103] the “Pre-emergence activity (GR80) on BRAPP” value (BRAPP [9]) was 750 g/ha, the “Pre-emergence activity (GR80) on CHEAL” value (CHEAL) was 500 g/ha and the “Pre-emergence activity (GR80) on SOLNI” value (SOLNI) was 250 g/ha. For the same compound, the “Pre-emergence activity (GR80) on CIRAR” value (CIRAR) was 750 g/ha, the “Pre-emergence activity (GR80) on CONAR” value (CONAR) was “* (Where herbicidal activity was evident but 80% inhibition was not achieved at the highest rate tested (typically 1000 g/ha), an asterisk (*) is shown)” and the “Pre-emergence activity (GR80) on ECHCG” value (ECHCG [10]) was “phyto”. The “Pre-emergence activity (GR80) on ABUTH” value (ABUTH) was 750 g/ha, the “Pre-emergence activity (GR80) on DATST” value (DATST) was 500 g/ha and the “Pre-emergence activity (GR80) on AMARE” value (AMARE) was 125 g/ha. The “Pre-emergence activity (GR80) on PORAL” value (POROL) was 125 g/ha, the “Pre-emergence activity (GR80) on PANDI” value (PANDI [11]) was 500 g/ha and the “Pre-emergence activity (GR80) on SORVU” value (SORVU [12]) was “phyto”. The “Pre-emergence activity (GR80) on PANMI” value (PANMI [13]) was 1000 g/ha, the “Pre-emergence activity (GR80) on DIGSA” value (DIGSA [14]) was 500 g/ha and the “Pre-emergence activity (GR80) on SORHA” value (SORHA [15]) was 500 g/ha. For the same compound, the “Pre-emergence activity (GR80) on SETFA” value (SETFA [16]) was 500 g/ha.
With `Cc1c(Cl)cccc1C(=O)NC(C)CNC(=O)c1cccc(C(F)(F)F)c1F` (stereo not shown) [Example 150] the “Pre-emergence activity (GR80) on BRAPP” value (BRAPP [9]) was “* (Where herbicidal activity was evident but 80% inhibition was not achieved at the highest rate tested (typically 1000 g/ha), an asterisk (*) is shown)”, the “Pre-emergence activity (GR80) on CHEAL” value (CHEAL) was 32 g/ha and the “Pre-emergence activity (GR80) on SOLNI” value (SOLNI) was 64 g/ha. The “Pre-emergence activity (GR80) on CIRAR” value (CIRAR) was 125 g/ha, the “Pre-emergence activity (GR80) on CONAR” value (CONAR) was 125 g/ha and the “Pre-emergence activity (GR80) on ECHCG” value (ECHCG [10]) was “* (Where herbicidal activity was evident but 80% inhibition was not achieved at the highest rate tested (typically 1000 g/ha), an asterisk (*) is shown)”. For the same compound, the “Pre-emergence activity (GR80) on ABUTH” value (ABUTH) was 1000 g/ha, the “Pre-emergence activity (GR80) on DATST” value (DATST) was 32 g/ha and the “Pre-emergence activity (GR80) on AMARE” value (AMARE) was 32 g/ha. The “Pre-emergence activity (GR80) on PORAL” value (POROL) was 32 g/ha, the “Pre-emergence activity (GR80) on PANDI” value (PANDI [11]) was 125 g/ha and the “Pre-emergence activity (GR80) on SORVU” value (SORVU [12]) was “phyto”. The “Pre-emergence activity (GR80) on PANMI” value (PANMI [13]) was 64 g/ha, the “Pre-emergence activity (GR80) on DIGSA” value (DIGSA [14]) was 32 g/ha and the “Pre-emergence activity (GR80) on SORHA” value (SORHA [15]) was “* (Where herbicidal activity was evident but 80% inhibition was not achieved at the highest rate tested (typically 1000 g/ha), an asterisk (*) is shown)”. For the same compound, the “Pre-emergence activity (GR80) on SETFA” value (SETFA [16]) was 125 g/ha.
